Experiment [1] can be described thus: cytotoxicity toward NIH3T3 fibroblasts, dose response, counter-screen, cell-based, ATP luminescence, mouse fibroblasts (AID 2010).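 Further: cells exposed to compound for about 90 hours before reading.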 It counts as functional. (The purpose of a counterscreen is to sort out artefacts and off-target activity.)
The next experiment has as its target T1, Streptokinase A (Streptococcus pyogenes serotype M1, UniProt P10520).
T1 sequence (P10520 whole entry): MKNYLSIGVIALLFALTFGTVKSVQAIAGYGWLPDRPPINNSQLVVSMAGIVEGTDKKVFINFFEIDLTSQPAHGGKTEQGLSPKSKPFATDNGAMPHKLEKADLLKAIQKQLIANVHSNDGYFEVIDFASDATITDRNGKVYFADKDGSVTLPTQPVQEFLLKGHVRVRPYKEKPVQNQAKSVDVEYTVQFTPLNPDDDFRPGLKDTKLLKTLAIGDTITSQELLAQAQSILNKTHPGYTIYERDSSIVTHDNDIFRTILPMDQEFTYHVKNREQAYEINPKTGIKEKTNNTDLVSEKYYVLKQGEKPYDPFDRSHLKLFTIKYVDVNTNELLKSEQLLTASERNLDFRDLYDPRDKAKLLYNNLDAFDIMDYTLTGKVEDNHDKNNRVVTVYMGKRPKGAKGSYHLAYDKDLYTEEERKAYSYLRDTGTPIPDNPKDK
In words: S. pyogenes streptokinase expression inhibitors, potency, dose response, plasminogen activation absorbance, OD405 (AID 1914).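 Further: secreted streptokinase activity via plasminogen activation per viability signal from cell pellet.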 Format: functional, Streptococcus pyogenes M1 GAS.

The target of experiment [2] is CAAX prenyl protease 2 (Homo sapiens, UniProt Q9Y256). The experiment can be described thus: human Rce1 protease inhibitors, dose response, biochemical, yeast membranes, quenched-peptide fluorescence, cherry-pick (AID 588849).
Experiment [3] has as its system Streptococcus sp. 'group A'. The experiment can be described thus: growth inhibition of control SK(-) GAS strain, dose response, counter-screen for streptokinase expression inhibitor project, luminescence, kanamycin, BacTiterGlo, confirmation (AID 1900). Format: functional, organism-based.
The test system of experiment [4] is HEK293. The experiment can be described thus: cells. It counts as functional, cell-based. To be noted: Homo sapiens.
Experiment [5] concerns HEK293. In words: NOD1 signaling inhibitors, primary screen, cell-based, luminescence, uHTS (AID 1578). Format: functional. To be noted: Homo sapiens.
Experiment [6] in a line: cells.
Experiment [7] deals with DNA repair protein RAD52 homolog (Homo sapiens, UniProt P43351). Format: functional, biochemical.
Experiment [8] concerns HEK293. In words: NOD2 signaling inhibitors in MDP-stimulated cells, cell-based, uHTS, luminescence (AID 2001). Format: functional. To be noted: Homo sapiens.
Experiment [9] has as its system HEK293. In words: cells. Format: functional, cell-based. To be noted: Homo sapiens. This is another data set of the same source.
The test system of another experiment is Streptococcus. In words: Group A Streptococcus viability loss, dose response, counter-screen for streptokinase expression inhibitor project, luminescence, BacTiterGlo (AID 1915).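 Further: potency for reduction of bacterial viability or growth.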 It counts as functional, organism-based.
The nature of experiment [10]: inhibitors of intracellular T. cruzi replication, confirmation, NIH3T3 host cells, beta-gal luminescence (AID 2044).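 Further: intracellular parasites grown in NIH/3T3 mouse fibroblasts as host cells; luminescent beta-galactosidase reporter signal from transgenic T. cruzi replicating inside host cells; inhibitors lower the luminescence signal.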 It counts as functional, cell-based.
For experiment [11], the target named is CAAX prenyl protease 2 (Saccharomyces cerevisiae S288c, UniProt Q03530). It counts as biochemical.
The next experiment addresses CAAX prenyl protease 1 (Saccharomyces cerevisiae S288c, UniProt P47154). In words: Ste24 protease inhibitors, dose response, biochemical, S. cerevisiae, plate reader, cherry-pick (AID 488815).
A short description of experiment [12]: NIH-3T3 fibroblast cytotoxicity, dose response, cytotoxicity control, cell-based, fluorescence, Alamar Blue, secondary assay (AID 2327).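 Further: NIH-3T3 mouse fibroblasts cultured with fluconazole at 8 µg/mL.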 Format: functional. On the technique in general: The colour change of resazurin is a common sign of viable cells or microbes.
The nature of experiment [13]: cells. It counts as functional, cell-based.
Another experiment has as its system INS1. The experiment can be described thus: beta cell apoptosis inhibitors, cytokine rescue, dose response, luminescence, retest (AID 449756).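 Further: cell death triggered by IL-1 beta plus TNF-alpha plus IFN-gamma mixture; protective hits raise ATP signal compared with cytokine alone wells.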 To be noted: Rattus norvegicus. It counts as functional, cell-based.
A short description of experiment [14]: cytotoxicity in HEK-293T cells, dose response, cytotoxicity control for TCR NF-kB inhibitor project, luminescence, T-cell screen hits (AID 489026).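 Further: cells exposed to compound about 14 hours before the viability readout.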 Format: functional, cell-based.
The target of experiment [15] is Heat shock protein HSP 90-alpha (Homo sapiens, UniProt P07900). It counts as functional, organism-based.
Experiment [16] is described as follows: C. albicans growth with fluconazole, confirmation, fluorescence, retest (AID 2467). Format: functional, cell-based.
A short description of experiment [17]: cells. It counts as functional, cell-based. This is another data set of the same source.
A further experiment addresses Cysteine protease ATG4B (Homo sapiens, UniProt Q9Y4P1). Format: functional.
The next experiment concerns the target Phospholipase A2 (Homo sapiens, UniProt P04054). It counts as functional.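 Further: confirmatory dose-response counterscreen on phospholipase A2, testing hits that came from an ultra-high-throughput screen for ATG4B inhibitors.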
For a further experiment, the system named is Vero. The experiment can be described thus: cells. To be noted: Chlorocebus sabaeus. Format: functional.
The target of experiment [18] is Hepatocyte nuclear factor 4-alpha (Homo sapiens, UniProt P41235). It counts as functional, cell-based.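 Further: biochemical luminescence-based dose-response counterscreen measuring inhibition of HNF4 dimerization, run alongside a screen for blockers of ABHD5–perilipin-5 interaction; split luciferase complementation of HNF4 fusion proteins in cell lysate measuring dimerization.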
The subject of experiment [19] is BJ. The experiment can be described thus: cytotoxicity toward BJ-TERT-LT-ST fibroblasts, dose response, cell-based, RAS-independent, luminescence (AID 1935).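 Further: BJ fibroblasts immortalized with TERT plus LT and ST oncogenes.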 Format: functional. To be noted: Homo sapiens.
Experiment [20] relates to BJ. The experiment can be described thus: cells. Format: functional, cell-based. To be noted: Homo sapiens.
The subject of experiment [21] is BJ. In words: cytotoxicity toward BJ-TERT fibroblasts, dose response, cell-based, RAS-independent, luminescence (AID 1933). It counts as functional. To be noted: Homo sapiens.
Experiment [22] can be described thus: cytotoxicity toward DRD oncogenic fibroblasts, dose response, cell-based, non-viral oncogenic, luminescence (AID 1934). It counts as functional. To be noted: Homo sapiens.
Experiment [23] in a line: inhibitors of SNCA 5'UTR-driven reporter translation, confirmation, H4 neuroglioma cells, luminescence (AID 1988). Format: functional, cell-based.
The next experiment has as its target NS3 (Hepatitis C virus, UniProt A3EZJ3). The experiment can be described thus: PubChem AID 2173. Further details: species or system Hepacivirus hominis.
Experiment [24] is described as follows: inhibitors of firefly luciferase expression or activity, dose response, H4 neuroglioma cells, luminescence (AID 1990). It counts as functional, cell-based.
Experiment [25] can be described thus: Luminescence Cell-Based Dose Response HTS to Identify Inhibitors of 5'UTR Stem-Loop Driven Prion Protein mRNA Translation in H4 Neuroglioblastoma Cells. [Related pubchem assays: 1827 (Project Summary), 1813 (Primary HTS)]. It counts as functional.
The target of experiment [26] is Serine/threonine-protein phosphatase (Candida dubliniensis (strain CD36 / CBS 7987 / NCPF 3949 / NRRLY-17841) (Yeast), UniProt B9W6M3). In words: calcineurin pathway inhibitors in yeast reporter, dose response, S. cerevisiae, CDRE-lacZ, luminescence, secondary (AID 2388).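 Further: yeast reporter cells carrying a calcineurin-responsive lacZ construct stimulated with calcium chloride; luminescent beta-galactosidase reporter signal in whole cells rather than isolated phosphatase activity; potency for inhibition where a drop in reporter signal means calcineurin blockade.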 It counts as functional, cell-based.
The nature of experiment [27]: Luminescence Cell-Based Dose Retest to Confirm Inhibitors of Cancer Stem Cells. [Related pubchem assays (depositor defined):AID2717, AID2721]. To be noted: Homo sapiens. It counts as functional.
In experiment [28] the target is ATP-dependent molecular chaperone HSP82 (Candida albicans (strain WO-1) (Yeast), UniProt C4YTQ8). In words: loss of DOC-induced GRE-beta-galactosidase reporter signal, dose response, Hsp90 inhibitor project, S. cerevisiae, luminescence (AID 2400).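 Further: beta-galactosidase luminescence from glucocorticoid response element reporter as proxy for Hsp90 function; inhibitor potency where signal loss means Hsp90 inhibition.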 It counts as functional, cell-based.

Active and inactive are the calls of the source. For most assays here, no stated cut-off is given here; in the data, actives have a measured EC50 and inactives only a lower limit.

Chain of CAAX prenyl protease 2 (Homo sapiens, UniProt Q9Y256) (Q9Y256 whole entry): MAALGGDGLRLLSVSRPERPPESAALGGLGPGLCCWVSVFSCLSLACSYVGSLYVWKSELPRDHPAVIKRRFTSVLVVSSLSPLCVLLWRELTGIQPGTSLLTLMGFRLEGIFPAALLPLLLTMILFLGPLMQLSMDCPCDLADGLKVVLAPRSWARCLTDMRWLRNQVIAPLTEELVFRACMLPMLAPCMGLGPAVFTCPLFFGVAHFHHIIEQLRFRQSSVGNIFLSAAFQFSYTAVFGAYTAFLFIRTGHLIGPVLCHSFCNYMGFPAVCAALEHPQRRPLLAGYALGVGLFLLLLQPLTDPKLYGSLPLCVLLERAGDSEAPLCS
Chain of Cysteine protease ATG4B (Q9Y4P1 whole entry): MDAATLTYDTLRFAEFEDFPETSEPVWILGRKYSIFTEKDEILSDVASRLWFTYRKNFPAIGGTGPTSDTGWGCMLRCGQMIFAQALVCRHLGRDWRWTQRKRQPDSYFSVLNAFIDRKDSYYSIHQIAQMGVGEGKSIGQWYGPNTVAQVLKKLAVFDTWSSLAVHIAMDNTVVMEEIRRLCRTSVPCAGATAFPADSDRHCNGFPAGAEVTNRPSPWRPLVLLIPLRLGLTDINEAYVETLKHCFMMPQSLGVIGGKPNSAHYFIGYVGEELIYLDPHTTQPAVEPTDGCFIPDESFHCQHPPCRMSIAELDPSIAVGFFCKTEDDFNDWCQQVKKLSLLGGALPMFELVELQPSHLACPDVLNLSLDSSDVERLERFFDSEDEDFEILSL
Chain of CAAX prenyl protease 2 (Saccharomyces cerevisiae S288c, UniProt Q03530) (Q03530 whole entry): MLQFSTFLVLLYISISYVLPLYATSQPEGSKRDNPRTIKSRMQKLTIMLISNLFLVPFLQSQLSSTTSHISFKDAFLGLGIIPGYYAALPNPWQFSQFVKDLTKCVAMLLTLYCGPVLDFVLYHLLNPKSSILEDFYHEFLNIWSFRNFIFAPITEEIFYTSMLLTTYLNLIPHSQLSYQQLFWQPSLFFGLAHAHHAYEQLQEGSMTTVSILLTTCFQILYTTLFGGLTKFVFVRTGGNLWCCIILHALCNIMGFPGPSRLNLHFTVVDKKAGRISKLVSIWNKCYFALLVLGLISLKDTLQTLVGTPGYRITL
Chain of Phospholipase A2 (P04054 whole entry): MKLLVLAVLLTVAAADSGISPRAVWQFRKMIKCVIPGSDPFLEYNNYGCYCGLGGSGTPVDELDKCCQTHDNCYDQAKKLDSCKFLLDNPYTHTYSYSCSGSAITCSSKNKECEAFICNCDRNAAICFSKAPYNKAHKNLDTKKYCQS
Chain of ATP-dependent molecular chaperone HSP82 (C4YTQ8 whole entry): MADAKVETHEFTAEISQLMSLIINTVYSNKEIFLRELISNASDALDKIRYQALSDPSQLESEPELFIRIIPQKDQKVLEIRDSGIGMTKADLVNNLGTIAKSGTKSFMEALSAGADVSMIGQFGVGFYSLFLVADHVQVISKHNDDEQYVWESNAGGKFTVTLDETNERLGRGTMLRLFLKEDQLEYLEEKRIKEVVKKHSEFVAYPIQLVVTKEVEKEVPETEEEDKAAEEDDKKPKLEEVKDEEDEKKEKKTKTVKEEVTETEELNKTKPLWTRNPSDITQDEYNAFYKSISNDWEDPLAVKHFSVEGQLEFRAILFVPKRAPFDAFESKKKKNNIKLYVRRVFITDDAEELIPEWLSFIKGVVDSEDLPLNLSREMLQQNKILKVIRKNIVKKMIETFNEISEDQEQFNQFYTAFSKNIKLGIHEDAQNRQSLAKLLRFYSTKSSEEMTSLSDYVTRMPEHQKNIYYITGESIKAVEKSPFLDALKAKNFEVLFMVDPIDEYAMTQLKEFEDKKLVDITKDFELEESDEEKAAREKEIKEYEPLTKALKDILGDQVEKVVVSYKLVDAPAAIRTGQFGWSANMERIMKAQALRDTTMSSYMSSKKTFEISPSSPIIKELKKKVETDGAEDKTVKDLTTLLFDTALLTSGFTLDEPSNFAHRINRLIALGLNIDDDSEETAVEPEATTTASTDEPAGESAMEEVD
Chain of CAAX prenyl protease 1 (P47154 whole entry): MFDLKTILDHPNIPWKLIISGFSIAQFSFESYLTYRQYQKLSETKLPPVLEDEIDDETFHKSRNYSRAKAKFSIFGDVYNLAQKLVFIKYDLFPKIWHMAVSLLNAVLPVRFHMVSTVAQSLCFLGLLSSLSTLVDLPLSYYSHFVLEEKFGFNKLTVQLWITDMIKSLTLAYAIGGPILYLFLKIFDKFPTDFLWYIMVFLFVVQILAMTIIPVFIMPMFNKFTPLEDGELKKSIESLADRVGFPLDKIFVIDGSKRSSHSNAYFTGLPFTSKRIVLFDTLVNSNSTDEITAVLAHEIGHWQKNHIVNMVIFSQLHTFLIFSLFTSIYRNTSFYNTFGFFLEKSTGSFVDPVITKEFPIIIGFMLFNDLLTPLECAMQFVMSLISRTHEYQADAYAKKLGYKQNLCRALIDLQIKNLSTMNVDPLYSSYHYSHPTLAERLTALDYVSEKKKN
Chain of Serine/threonine-protein phosphatase (B9W6M3 whole entry): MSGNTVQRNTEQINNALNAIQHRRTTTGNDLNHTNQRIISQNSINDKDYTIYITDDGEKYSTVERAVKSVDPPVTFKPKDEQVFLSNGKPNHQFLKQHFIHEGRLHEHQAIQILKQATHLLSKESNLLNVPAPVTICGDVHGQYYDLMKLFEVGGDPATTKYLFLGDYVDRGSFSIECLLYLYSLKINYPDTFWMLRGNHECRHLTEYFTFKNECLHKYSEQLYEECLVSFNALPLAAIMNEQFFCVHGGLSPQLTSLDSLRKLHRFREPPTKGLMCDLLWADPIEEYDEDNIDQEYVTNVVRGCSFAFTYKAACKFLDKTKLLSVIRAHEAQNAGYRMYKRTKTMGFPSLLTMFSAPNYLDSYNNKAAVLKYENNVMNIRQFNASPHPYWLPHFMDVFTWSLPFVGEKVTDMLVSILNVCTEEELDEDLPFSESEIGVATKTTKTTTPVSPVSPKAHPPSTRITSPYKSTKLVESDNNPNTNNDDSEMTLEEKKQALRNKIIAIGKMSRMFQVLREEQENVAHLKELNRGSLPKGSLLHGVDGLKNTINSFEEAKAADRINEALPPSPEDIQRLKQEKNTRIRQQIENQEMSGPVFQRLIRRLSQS
Chain of NS3 (A3EZJ3 whole entry): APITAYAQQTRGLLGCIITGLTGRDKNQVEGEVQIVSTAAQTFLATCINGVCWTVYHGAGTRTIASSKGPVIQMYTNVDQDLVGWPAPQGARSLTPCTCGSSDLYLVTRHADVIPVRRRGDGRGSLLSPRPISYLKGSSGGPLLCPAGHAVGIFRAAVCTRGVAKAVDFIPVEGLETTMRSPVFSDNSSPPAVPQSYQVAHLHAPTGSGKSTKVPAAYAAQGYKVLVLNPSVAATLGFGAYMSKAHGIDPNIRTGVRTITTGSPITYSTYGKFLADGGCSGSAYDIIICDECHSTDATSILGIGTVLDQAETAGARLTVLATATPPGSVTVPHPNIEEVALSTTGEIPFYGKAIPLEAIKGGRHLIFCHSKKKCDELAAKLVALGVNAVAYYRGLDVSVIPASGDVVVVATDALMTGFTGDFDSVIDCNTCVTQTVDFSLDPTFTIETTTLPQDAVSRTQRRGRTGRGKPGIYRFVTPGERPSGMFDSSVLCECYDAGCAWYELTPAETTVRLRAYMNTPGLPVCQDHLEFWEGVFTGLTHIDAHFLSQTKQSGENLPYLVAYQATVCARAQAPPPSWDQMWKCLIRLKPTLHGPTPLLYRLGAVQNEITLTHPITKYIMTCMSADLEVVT
Chain of DNA repair protein RAD52 homolog (P43351 whole entry): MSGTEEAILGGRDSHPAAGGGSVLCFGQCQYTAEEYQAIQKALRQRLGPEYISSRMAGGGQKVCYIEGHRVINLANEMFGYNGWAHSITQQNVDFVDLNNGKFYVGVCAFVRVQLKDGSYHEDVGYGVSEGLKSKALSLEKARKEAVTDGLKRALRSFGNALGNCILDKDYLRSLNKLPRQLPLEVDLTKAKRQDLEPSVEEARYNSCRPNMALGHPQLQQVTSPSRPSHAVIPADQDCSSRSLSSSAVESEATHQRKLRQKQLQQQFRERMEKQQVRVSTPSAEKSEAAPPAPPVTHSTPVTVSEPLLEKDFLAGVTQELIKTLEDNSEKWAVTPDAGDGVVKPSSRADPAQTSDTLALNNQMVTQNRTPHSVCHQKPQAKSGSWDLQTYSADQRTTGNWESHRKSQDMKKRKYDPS
Chain of Hepatocyte nuclear factor 4-alpha (P41235 whole entry, the tested form may be a part): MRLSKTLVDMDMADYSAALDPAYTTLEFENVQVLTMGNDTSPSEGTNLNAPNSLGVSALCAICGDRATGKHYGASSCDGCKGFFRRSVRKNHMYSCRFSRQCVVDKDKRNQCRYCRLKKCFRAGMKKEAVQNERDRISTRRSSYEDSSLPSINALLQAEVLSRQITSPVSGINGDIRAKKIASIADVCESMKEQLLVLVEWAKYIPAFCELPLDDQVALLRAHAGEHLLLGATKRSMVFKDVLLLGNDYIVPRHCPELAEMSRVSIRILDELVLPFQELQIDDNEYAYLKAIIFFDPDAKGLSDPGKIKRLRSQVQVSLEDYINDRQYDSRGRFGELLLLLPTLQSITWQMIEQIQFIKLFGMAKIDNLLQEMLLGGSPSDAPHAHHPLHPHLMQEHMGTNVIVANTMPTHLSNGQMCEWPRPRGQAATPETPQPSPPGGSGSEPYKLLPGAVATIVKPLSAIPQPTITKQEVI

By EC50 is commonly meant the concentration that produces a half-maximal response. The term AC50 denotes the concentration giving half of the maximal activity seen. In general, IC50 refers to the point on the concentration scale where inhibition reaches its midpoint. Regarding `CCC(C)(C)c1ccc(OCCCC[n+]2cccc(C)c2)c(C(C)(C)CC)c1`, the EC50 is > 30 µM (not active) in experiment [1]; 14.1 µM (active) on Streptokinase A; 6.58 µM (active) in experiment [3]; 8.28 µM (active) in the experiment on HEK293 [5]; 0.128 µM (active) in the experiment “cells [6]”; 14.9 µM (active) in the experiment with Streptococcus. In addition, the EC50 in experiment [10] was < 0.1 µM (active). Besides, the AC50 at CAAX prenyl protease 2 [2] was 22 µM (active); in experiment [7] it was 7.32 µM (active); on CAAX prenyl protease 2 [11], 10.5 µM (active). The IC50 in the experiment with HEK293 [4] is 4.11 µM (active); in the experiment on HEK293 [8], 3.36 µM (active); in the experiment on HEK293 [9] it was 7.99 µM (active).
Take `CNC(=S)N/N=C/c1cn(Cc2c(F)cccc2Cl)c2ccccc12`: the AC50 at CAAX prenyl protease 2 [2] was 16 µM (active); at CAAX prenyl protease 2 [11] it was 0.818 µM (active); on CAAX prenyl protease 1 it was 7.58 µM (active).
With `CCC(=O)NC(c1cccs1)c1ccc2cccnc2c1O` (stereo unspecified), the EC50 was 3.59 µM (active) in [12]; 1.48 µM (active) in [1]; > 350 µM (not active) in the experiment “cells [13]”; 1.39 µM (active) in experiment [16]; 8.02 µM (active) in the experiment “cells [17]”; 0.48 µM (active) in experiment [10]. Moreover, the AC50 is 0.86 µM (active) in the experiment with INS1 and 7.9 µM (active) in [15]. Further, in experiment [14], the IC50 was > 80 µM (inactive).
For `CCOC(=O)c1c(C)[nH]c(C(=O)COC(=O)COc2ccccc2C=O)c1C`, the IC50 on Cysteine protease ATG4B was 10.5 µM (active); on Phospholipase A2, 9.64 µM (active).
What is called CC50 is the concentration at which the toxic effect on the cells reaches its halfway point. As for `CCOc1ccc(Oc2c(/C=N/NC(=O)COc3ccccc3OC)c(C)nn2-c2ccccc2)cc1`, the CC50 in the experiment with Vero is > 25 µM (active).
For `Cc1ccc(C)c(/C=C/C(=O)c2ccccc(=O)c2O)c1`, the EC50 in experiment [12] was > 150 µM (inactive); in [1], 8.18 µM (active); in the experiment with BJ [19], > 150 µM (not active); with BJ [20] it was 14.4 µM (active); with BJ [21], 17.2 µM (inconclusive); in experiment [3], 1.41 µM (active). For the same molecule, the EC50 is 56.8 µM (inconclusive) in [22]; 1.47 µM (active) in experiment [16]; 12.7 µM (active) in experiment [23]; 5 µM (active) with Streptococcus; 2.29 µM (active) in [10]; 13.9 µM (active) in experiment [24]. For the same molecule, the concentration giving a half-maximal response (EC50) in experiment [25] is on record as > 120 µM (not active). The IC50 in experiment [18] is 6.56 µM (active); at NS3, 2.52 µM (active). In addition, the AC50 in experiment [15] is 2.42 µM (active).
In the case of `Cc1cccc(C(=O)NNC2=C(C(=O)C(F)(F)F)CCC2)c1O`, the EC50 is > 160 µM (inactive) in [12], > 180 µM (inactive) in [26], 0.53 µM (active) in [16] and 35.6 µM (active) in experiment [28]. Further, the AC50 in [27] was 3.16 µM (active).
With `CCOC(=O)C(C)Sc1nc2ccccc2c(=O)n1CC1CCCCC1` (stereo unspecified), the IC50 was 2.36 µM (active) on Cysteine protease ATG4B and 2.05 µM (active) at Phospholipase A2.

These data come from ChEMBL document CHEMBL1201862, “PubChem BioAssay data set” (2004).
